Results on three compounds are retold here after publication PMC12127850 (RSC Medicinal Chemistry, 2025).

Counter-ions that a name gives are not always drawn.

Common to all, as to type: cell-based
In assay [1] the target is T1, prostate-specific membrane antigen (PSMA) (Homo sapiens, UniProt Q04609). Put plainly: blocking of […]-PSiMA uptake in LNCaP cells by […] 2-PMPA.
Assay [2] deals with T1, prostate-specific membrane antigen (PSMA). The assay can be described thus: in vivo PET blocking of […]-PSiMA uptake in LNCaP tumors.
The target is the same in assay [3]. The assay can be described thus: competitive displacement of […]-PSMA-1007 in PSMA-expressing LNCaP cells.

T1 sequence (Q04609 whole entry): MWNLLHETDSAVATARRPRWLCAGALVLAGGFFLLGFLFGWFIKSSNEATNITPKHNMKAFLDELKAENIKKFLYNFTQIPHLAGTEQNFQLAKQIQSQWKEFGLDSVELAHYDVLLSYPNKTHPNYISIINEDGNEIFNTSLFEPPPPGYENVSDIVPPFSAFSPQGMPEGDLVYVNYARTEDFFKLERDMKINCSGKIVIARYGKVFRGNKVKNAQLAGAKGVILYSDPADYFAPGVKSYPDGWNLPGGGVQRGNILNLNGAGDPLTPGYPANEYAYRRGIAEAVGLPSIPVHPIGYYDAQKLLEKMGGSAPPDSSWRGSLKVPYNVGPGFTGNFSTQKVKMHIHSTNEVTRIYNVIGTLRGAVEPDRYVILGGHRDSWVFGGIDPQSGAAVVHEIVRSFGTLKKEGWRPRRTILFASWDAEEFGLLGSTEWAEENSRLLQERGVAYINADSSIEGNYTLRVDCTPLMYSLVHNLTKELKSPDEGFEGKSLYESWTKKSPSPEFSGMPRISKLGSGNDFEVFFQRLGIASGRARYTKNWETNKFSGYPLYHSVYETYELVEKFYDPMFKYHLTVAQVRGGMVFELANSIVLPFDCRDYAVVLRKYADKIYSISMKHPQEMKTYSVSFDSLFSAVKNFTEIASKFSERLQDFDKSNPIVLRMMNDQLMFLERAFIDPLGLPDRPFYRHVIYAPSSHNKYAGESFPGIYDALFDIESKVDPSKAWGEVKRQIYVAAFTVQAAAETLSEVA

`O=C(O)CCC(CP(=O)(O)O)C(=O)O` (stereo not drawn) [2-PMPA, 2-(phosphonomethyl)pentanedioic acid]: the “% blocking at 1 μM” value in assay [1] is 75 % blocking at 1 μM.

Turning to `O=C(O)CC[C@H](NC(=O)N[C@@H](CCCCNC(=O)c1ccc(F)nc1)C(=O)O)C(=O)O` [DCFPyL], the “% reduction of tumor uptake” value in assay [2] is listed as 20 ± 10 % reduction of tumor uptake.

Regarding `CC(C)(C)[Si](F)(c1ccc(C(=O)N[C@H](CC(=O)O)C(=O)N[C@H](CC(=O)O)C(=O)NCC[N+](C)(C)CCn2cc(CCCCCCCCC(=O)NCCCC[C@H](NC(=O)N[C@@H](CCC(=O)O)C(=O)O)C(=O)O)nn2)cc1)C(C)(C)C` [compound 14, {2-[(2R)-3-Carboxy-2-[(2R)-3-carboxy-2-({4-[di-tert-butyl(fluoro)silyl]phenyl}formamido)propanamido]propanamido]ethyl}({2-[4-(8-{[(5S)-5-carboxy-5-({[(1S)-1,3-dicarboxypropyl]carbamoyl}amino)pentyl]carbamoyl}octyl)-1H-1,2,3-triazol-1-yl]ethyl})dimethylazanium trifluoroacetate], the IC50 (usually the concentration that gives 50% inhibition) in assay [3] came out at 154 ± 47 nM.
